Data on 1 molecule can be found in BindingDB's records for patent US20250214967 (Berrybio (Shanghai), 2025).

For the test, the target named is Focal adhesion kinase 1 (Homo sapiens, UniProt Q05397). Briefly: FAK Kinase Assay. On the procedure:
The inhibitory activity of a compound against FAK was determined in a buffer containing 5 mM HEPES, pH 7.5, 0.01% Triton, 0.5 mM EGTA, and 0.01% BRIJ™-35 in a 384-well assay plate. The assay was carried out in the presence of the FAK at 1 nM and ATP at 6.8 μM using fluorescein-polyGT (0.2 μM) as an FAK substrate. Each assay mixture was incubated at room temperature for 30 min. A LANTHASCREEN Tb-PY20 antibody was added to each well to stop the enzymatic reaction. The plate was incubated at room temperature for 60 min before reading on an ENVISION using TR-FRET module (excitation at 340 nm and emission at 520 nm and 495 nm).

Sequence of Focal adhesion kinase 1 (Q05397 whole entry): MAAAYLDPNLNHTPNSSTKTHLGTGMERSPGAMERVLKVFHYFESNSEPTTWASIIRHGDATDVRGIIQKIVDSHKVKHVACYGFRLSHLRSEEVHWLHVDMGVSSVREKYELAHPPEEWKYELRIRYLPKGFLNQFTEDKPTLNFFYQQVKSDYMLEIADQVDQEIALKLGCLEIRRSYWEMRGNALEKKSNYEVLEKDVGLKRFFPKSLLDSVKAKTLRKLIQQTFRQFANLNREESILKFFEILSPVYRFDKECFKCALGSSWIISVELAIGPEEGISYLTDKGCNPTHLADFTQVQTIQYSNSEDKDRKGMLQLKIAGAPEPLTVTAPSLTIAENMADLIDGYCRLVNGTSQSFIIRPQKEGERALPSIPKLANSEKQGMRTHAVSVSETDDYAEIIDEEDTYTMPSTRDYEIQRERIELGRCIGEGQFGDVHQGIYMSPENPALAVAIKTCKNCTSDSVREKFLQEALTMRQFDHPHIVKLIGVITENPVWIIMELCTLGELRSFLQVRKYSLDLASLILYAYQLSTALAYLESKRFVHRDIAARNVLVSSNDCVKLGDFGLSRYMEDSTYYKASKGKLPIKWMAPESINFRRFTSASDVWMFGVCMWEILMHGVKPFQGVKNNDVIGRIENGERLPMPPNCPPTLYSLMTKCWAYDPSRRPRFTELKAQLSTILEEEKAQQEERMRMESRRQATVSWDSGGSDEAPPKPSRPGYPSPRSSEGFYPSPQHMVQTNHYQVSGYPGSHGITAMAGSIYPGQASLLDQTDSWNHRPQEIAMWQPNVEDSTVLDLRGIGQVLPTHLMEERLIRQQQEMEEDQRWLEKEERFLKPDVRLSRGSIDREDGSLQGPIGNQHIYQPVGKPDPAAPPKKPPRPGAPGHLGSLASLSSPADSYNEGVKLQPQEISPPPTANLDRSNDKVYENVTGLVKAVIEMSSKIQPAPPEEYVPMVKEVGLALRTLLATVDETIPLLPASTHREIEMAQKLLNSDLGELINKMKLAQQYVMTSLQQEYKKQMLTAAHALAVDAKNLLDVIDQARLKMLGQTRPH

`Cc1cc(Cc2ncc(C(F)(F)F)c(NCC3C=C(N(C)S(C)(=O)=O)CCC3)n2)ccc1OCCOCCOCCOc1ccc2c(c1)C(=O)N(C1CCC(=O)NC1=O)C2=O` (stereo unspecified) [US20250214967, Compound A2] displayed an IC50 of 3 nM.
